Test [1] has as its target T1, Human 5-lipoxygenase (Homo sapiens, UniProt P09917).
T1 construct: host or cells: Sf9 cells
T1 sequence (P09917 1-674): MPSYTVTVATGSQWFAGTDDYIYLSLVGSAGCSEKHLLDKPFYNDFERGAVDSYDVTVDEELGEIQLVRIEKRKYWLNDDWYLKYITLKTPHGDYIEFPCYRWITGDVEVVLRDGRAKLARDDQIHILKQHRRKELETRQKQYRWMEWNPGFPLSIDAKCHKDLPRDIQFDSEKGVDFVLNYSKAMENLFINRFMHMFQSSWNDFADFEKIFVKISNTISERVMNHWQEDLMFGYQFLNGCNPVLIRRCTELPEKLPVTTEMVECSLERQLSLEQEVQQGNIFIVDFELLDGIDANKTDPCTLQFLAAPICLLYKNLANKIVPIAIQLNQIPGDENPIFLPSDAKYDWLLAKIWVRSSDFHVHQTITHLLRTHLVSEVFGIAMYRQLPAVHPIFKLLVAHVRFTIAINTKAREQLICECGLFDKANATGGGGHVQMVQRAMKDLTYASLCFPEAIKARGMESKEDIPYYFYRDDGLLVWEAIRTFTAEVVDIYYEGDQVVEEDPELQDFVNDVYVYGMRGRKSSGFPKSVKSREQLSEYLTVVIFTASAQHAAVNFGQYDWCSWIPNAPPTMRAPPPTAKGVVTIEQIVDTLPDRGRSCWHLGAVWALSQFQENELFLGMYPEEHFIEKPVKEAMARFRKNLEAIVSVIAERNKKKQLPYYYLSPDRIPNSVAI
The test can be described thus: 5-lipoxygenase enzyme activity, fluorescence measurement. The test is classed as biochemical. The procedure:
Human 5-lipoxygenase produced by Sf9 cells was used throughout the experiments. The enzyme was pre-incubated with 10 μM compound according to Example 2 at room temperature, then—after the addition of 25 μM arachidonic acid substrate—the amount of generated rhodamine 123 was determined by fluorescence measurement. Percentage of inhibition rate was calculated by comparison to untreated control reactions.

The subject of test [2] is C57BL6/J mice. As to the kind of experiment: Short-term memory impairment caused by amyloid peptide aggregates (icv Aβ oligomers), Y maze test. The format is in vivo, mouse. The note with it: Y maze at day 4 post Aβ. How it is done:
In vivo experiments were carried out according to the National Institute of Health guidelines for the care and use of laboratory animals, approved by the French Ministry for Research and Technology. In the course of experiments, animals were housed at a standard temperature (22±1° C.) and in a light-controlled environment (lights on from 7 a.m. to 8 p.m.) with ad libitum access to food and water. Male C57BL/6 mice (C57BL/6J Rj, ref. SC-CJ-12w-M, Janvier, France) were housed 5 animals per cage. From one week before the start of the experiment until the end of the experiment, mice were housed individually. Animals were monitored twice-a-day by laboratory personnel (8 a.m. and 4 p.m.). In this project, young (14 weeks old) as well as aged (15-16 months old) mice were used. Experiments were carried out using 12 mice per experimental group.
Investigation of short-term working memory—Y maze test Y maze tests were carried out as previously described. Prior to testing, mice were brought to the experimental room for at least 30 min to acclimatize to experimental room conditions. The Y maze is made of opaque Plexiglas and each arm is 40 cm long, 16 cm high, 9 cm wide and positioned at equal angles. The apparatus was placed in the test room in such a way that it was brightened homogeneously with 12-15 lux in the arms as well as in the central zone. One mouse at a time was placed at the end of one arm and was allowed to move in the maze freely during a 5 min examination. Each arm entry was recorded with those entries being counted where the mouse completely placed its hind paws in the chosen arm. […] Results were calculated as the percentage of the ratio of actual detected alternations to possible alternations (defined as the number of total arm entries minus 2).
For the examination of memory impairment caused by Aβ oligomers, a mouse model developed and validated by SynAging was used. […] At day 4 post Aβ treatment, short-term memory was assessed with the Y maze test. […]
At day 4 post Aβ treatment, short-term memory was assessed with the Y maze test.

Test [3] has as its system EPO gene. As to the kind of experiment: Erythropoietin gene expression in hippocampus and cortex of aged animals, chronic treatment, qRT-PCR. The test is classed as in vivo, mouse. The following applies: 18-month-old C57BL/6 female mice, 20 mg/l in drinking water for four months. How it is done:
Twenty-four 18-month-old C57BL/6 female mice (Innovo Ltd., Budapest, Hungary) were divided into two groups randomly: Group 1—untreated control, Group 2—treated with the R-enantiomer according to Example 2, administered in drinking water (20 mg/l) for four months. From both groups, 10-10 mice were sacrificed by CO2 inhalation. […]
To study gene expression, total RNA was extracted from the brain tissues with Accuzol™ Total RNA Extraction Solution (Bioneer, Daejeon, South Korea), according to the manufacturer's protocol. cDNA transcription was carried out with the High Capacity cDNA Reverse Transcription Kit (Life Technologies, Foster City, Calif., USA). Expression of the gene coding for erythropoietin, the EPO gene was determined by qRT-PCR (with HPRT gene serving as a control) with the method and instrument described in Example 33. but here, mouse-specific UPL probes (HPRT: 95, EPO: 16) and primer pairs were applied (mouse HPRT1: 5′-tcctcctcagaccgctttt-3′, mouse HPRT2: 5′-[…]-3′; mouse EPO1: 5′-[…]-3′, mouse EPO2: 5′-cttctgcacaacccatcgt-3′).

“Also recorded” adds a separate entry of the source.

The term inhibition denotes the percentage by which the read-out fell short of the control. Turning to `Cc1ccnc(N[C@H](c2ccc(C(F)(F)F)cc2)c2ccc3cccnc3c2O)n1` [Example 2, 7-[(R)-[(4-Methylpyrimidin-2-yl)amino][4-(trifluoromethyl)phenyl]methyl]quinolin-8-ol], the “inhibition of 5-lipoxygenase enzyme (concentration range in words)” value in test [1] is listed as “inhibits in micromolar concentration”. The inhibition at 10 µM in test [1] (10 μM concentration, 25 μM arachidonic acid substrate) came out at 54%. Also, the “inhibition of short-term memory impairment caused by fibrillar aggregates of amyloid peptides” value in test [2] (4 mg/kg body weight per os once daily for four days) is “inhibited”. Also, the “inhibition of short-term memory impairment caused by fibrillar aggregates of amyloid peptides, dose dependence” value in test [2] (0.5, 2 and 4 mg/kg body weight per os once daily for four days) is on record as “in a dose-dependent manner”. The “EPO gene expression in hippocampus and cortex compared to untreated control mice” value in test [3] is “resulted increased EPO gene activity in cerebral cortex and hippocampus; also recorded: induced both hippocampal and cortical EPO expression”.

These data come from patent publication US10287265B2, “Enantiomers of 8-hydroxyquinoline derivatives and the synthesis thereof” (AVIDIN Co. Ltd., priority 2015, dated 2019).
